Data reported in patent US4874752A, “Benzoquinone derivatives and production thereof” (Takeda Chemical Industries, Ltd., priority 1982, dated 1989).

What was measured:
collagen biosynthesis = experiment: Inhibitory activity of collagen biosynthesis (collagen content of the uterus, with 17β-estradiol); type: in vivo, SD strain rats (female, 3 weeks old); settings: for Degree of inhibition: uterus collagen
Protocol: In accordance with the method of R. A. Salvador et al. [Arch. Biochem. Biophys. 174, 382 (1976)], 0.2 mg/kg of each test compound was intraperitoneally administered to SD strain rats (.female., 3 weeks old) once a day for 6 days. After that, the collagen content of the uterus was determined and compared with that of control experiment.
*Rats were used 3 animals as one group; initial body weights 41 ± 2- 4

5-lipoxygenase = molecular target: T1, 5-lipoxygenase (Rattus norvegicus, UniProt P12527); experiment: Inhibition of 5-lipoxygenase activity in RBL-1 cells (5-HETE production); type: cell-based; settings: 37° C., 20 minutes, arachidonic acid + A-23187
T1 construct: endogenous in cells; host or cells: RBL-1
T1 sequence (P12527 1-673): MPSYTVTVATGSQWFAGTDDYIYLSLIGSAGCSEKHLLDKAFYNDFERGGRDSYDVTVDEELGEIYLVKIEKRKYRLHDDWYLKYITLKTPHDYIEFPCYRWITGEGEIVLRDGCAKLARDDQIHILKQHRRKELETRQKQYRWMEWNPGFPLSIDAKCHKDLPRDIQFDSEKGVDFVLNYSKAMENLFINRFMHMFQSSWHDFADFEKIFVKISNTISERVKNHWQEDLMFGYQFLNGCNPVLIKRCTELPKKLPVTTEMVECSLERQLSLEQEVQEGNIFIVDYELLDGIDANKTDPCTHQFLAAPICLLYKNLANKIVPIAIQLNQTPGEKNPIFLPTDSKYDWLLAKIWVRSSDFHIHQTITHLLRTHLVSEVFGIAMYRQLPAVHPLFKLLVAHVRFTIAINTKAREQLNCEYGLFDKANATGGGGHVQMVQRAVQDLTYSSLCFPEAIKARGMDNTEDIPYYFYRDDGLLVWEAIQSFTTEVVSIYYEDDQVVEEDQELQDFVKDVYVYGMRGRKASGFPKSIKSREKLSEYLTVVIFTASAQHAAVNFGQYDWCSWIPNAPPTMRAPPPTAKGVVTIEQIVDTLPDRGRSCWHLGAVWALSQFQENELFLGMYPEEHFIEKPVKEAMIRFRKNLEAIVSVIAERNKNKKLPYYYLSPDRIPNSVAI
Protocol: 10^7 RBL-1 cells (rat basophilic leukemia cells) are suspended in 0.5 ml of MCM (mast cell medium), and, then, a test solution (0.5 ml of MCM, 50 μg of arachidonic acid, 10 μg of A-23187 and 1 μM or 10 μM of the quinone compound) is added. The reaction is conducted at 37° C. for 20 minutes. After completion of the reaction, 4 ml of ethanol including 1,4-dimethoxy-2-methyl-3-(3-methoxypropyl)naphthalene are added (0.5 μg/ml) are added as an internal reference. After shaking well, the mixture is allowed to stand at room temperature for 10 minutes. Then, the mixture was centrifuged (2000 r.p.m./min.) for 10 minutes and the supernatant is separated. This supernatant is concentrated under reduced pressure to about 200 μl. To the concentrate is added a high performance liquid chromatography solvent [CH3 CN(1500): CH3 OH(500): water (1100): acetic acid(2); pH 5.6 (adjusted with aqueous ammonia)] to make a total of 1 ml. A 200 μl portion of this solution is taken and 5-HETE (5-hydroxyeicosatetraenoic acid) is assayed by high performance liquid chromatography. The degree of inhibition of 5-HETE production (IE) is expressed in terms of […], where a is the peak height or area after correction with the peak of the internal reference standard in the absence of the quinone compound and b is the peak height or area after correction with the peak of the internal reference standard in the presence of the quinone compound.

[1] = 17β-estradiol + compound, 0.2 mg/kg i.p. once a day for 6 days

inhibition at 1 µM (5-lipoxygenase)	inhibition at 10 µM (5-lipoxygenase)	Compound	Collagen content of uterus (collagen biosynthesis; [1])	Degree of inhibition (collagen biosynthesis; [1])	other results
63.5%	79.2%	CC1=C(C)C(=O)C(c2nc3cc(C(C)C(=O)O)ccc3o2)=C(C)C1=O (centres unmarked)			
73.9%	83.5%	COC1=C(OC)C(=O)C(COc2ccc(/C=C/C(=O)O)cc2)=C(C)C1=O [drawing 37]			
72%	83.1%	COC1=C(OC)C(=O)C(CCCCOc2ccc(/C=C/C(=O)O)cc2)=C(C)C1=O			
70.1%	81.5%	COC1=C(C)C(=O)C(COc2ccc(CC(=O)O)cc2)=C(C)C1=O			
76.6%	85.8%	COC1=C(OC)C(=O)C(CC=C(C)COc2ccc(/C=C/C(=O)O)cc2)=C(C)C1=O			
72.2%	83.3%	COC1=C(OC)C(=O)C(CC=C(C)COc2ccc(CC(=O)O)cc2)=C(C)C1=O [drawing 38]			
21.8%	39.1%	NC1=NN(c2cccc(C(F)(F)F)c2)CC1 [BW755C, reference compound]			

More lines, now with the values behind:

Compound	inhibition at 1 µM (5-lipoxygenase)	inhibition at 10 µM (5-lipoxygenase)	Collagen content of uterus (collagen biosynthesis; [1])	Degree of inhibition (collagen biosynthesis; [1])	other results
COC1=C(OC)C(=O)C(COc2ccc(/C=C/C(=O)O)cc2)=C(C)C1=O [drawing 32]			2.77 ± 0.25 mg	38%	
COC1=C(OC)C(=O)C(CCCCCCCCCC(=O)N[C@@H](CCCNC(=N)N)C(=O)O)=C(C)C1=O [n: 9, Z:CONHArg, 10-(2,3-dimethoxy-5-methyl-1,4-benzoquinon-6-yl)decanoyl-L-arginine]			2.86 ± 0.75 mg	33%	
COC1=C(OC)C(=O)C(/C=C/C(=O)O)=C(C)C1=O [drawing 30]			2.53 ± 0.28 mg	51%	
CCCCCC#CCC#CCC#CCC#CCCCC(=O)O [ETYA, Eicosatetraynoic acid, reference compound]	35.9%	39.4%			
COC1=C(OC)C(=O)C(/C=C/C(C)=O)=C(C)C1=O [drawing 31]			2.98 ± 0.15 mg	26%	
C[C@]12CC[C@@H]3c4ccc(O)cc4CC[C@H]3[C@@H]1CC[C@@H]2O [17β-estradiol, reference compound]					Collagen content of uterus (collagen biosynthesis; 17β-estradiol alone): 3.45 ± 0.11 mg; Body weight of rats (collagen biosynthesis; 17β-estradiol alone, 3 rats per group, initial body weight about 41 g): 73 ± 3 g
